Test results as given in patent US20240262848A1, “HETEROCYCLIC COMPOUNDS, COMPOSITIONS THEREOF, AND METHODS OF TREATMENT THEREWITH” (BeiGene, Ltd., priority 2022, published 2024).

Assays:
[1] = test system: pERK1/2(THR202/TYR204) level in SW620 cell line; experiment: KRAS G12V pERK assay in SW620 cells (HTRF); format: cell-based; settings: Homo sapiens, SW-620, Table 4, 2 hrs compound treatment
Procedure: SW620 cell line was used in this study. Cells were maintained in RPMI 1640 supplemented with 10% fetal bovine serum (Thermo Fisher), 50 units/mL penicillin and streptomycin (Thermo Fisher) and kept at 37° C. in a humidified atmosphere of 5% CO2 in air. Cells were reinstated from frozen stocks that were laid down within 30 passages from the original cells purchased. 40000 cells per well were seeded into a 96-well plate and incubated overnight. Cells were treated with a 10-point dilution series. The final compound concentration is from 0 to 10 μM. After 2 hrs compound treatment, cells were lysed, and the pERK1/2(THR202/TYR204) level in the cell lysates was detected by HTRF kit (Cisbio). In brief, a total of 16 μL of cell lysate from each well of a 96-well plate was transferred to a 384-well white assay plate. Lysate from each well was incubated with 2 μL of Eu3+-cryptate (donor) labeled anti-phospho-ERK1/2 and 2 μL of D)2 (acceptor) labeled anti-phospho-ERK1/2 antibodies (Cisbio) overnight in dark at room temperature. When donor and acceptor are in close proximity, excitation of the donor with laser triggers a Fluorescence Resonance Energy Transfer (FRET) towards the acceptor, which in turn fluoresces at 655 nm wavelength. FRET signals were measured using a PHERAstar FSX reader (BMG Labtech). IC50 determination was performed by fitting the curve of percent inhibition versus the log of the inhibitor concentration using Dotmatics.

[2] = target: GST-tagged GDP-loaded KRAS G12V (amino acids 1-169) (Homo sapiens, UniProt P01116, G12V); experiment: KRAS G12V probe displacement assay (TR-FRET); format: binding; settings: Table 4; KRAS G12V 2 nM, biotinylated probe 2 2.5 nM
Procedure: Plates are incubated at 24 °C for 1 hr. […] After 1 hr incubation at 24° C.

GST-tagged GDP-loaded KRAS G12V (amino acids 1-169), sequence (P01116 1-169 isoform P01116-2 G12V): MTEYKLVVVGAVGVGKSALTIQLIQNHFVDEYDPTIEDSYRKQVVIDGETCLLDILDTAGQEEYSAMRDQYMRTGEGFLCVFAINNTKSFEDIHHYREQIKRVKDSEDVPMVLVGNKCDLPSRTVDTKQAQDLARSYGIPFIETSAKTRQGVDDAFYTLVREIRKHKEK

SMILES	IC50 [1] [nM]	IC50 [2] [nM]
CC1CCN(C)c2nc(OC[C@@]34CCCN3C[C@H](F)C4)nc3c(F)c(-c4cc(N)cc(Cl)c4C(F)(F)F)nc(c23)O1 (stereo partly drawn) [Example 14, 3-chloro-5-(4-fluoro-2-(((2R,7aS)-2-fluorotetrahydro-1H-pyrrolizin-7a(5H)-yl)methoxy)-8,11-dimethyl-8,9,10,11-tetrahydro-7-oxa-1,3,6,11-tetraazacycloocta[de]naphthalen-5-yl)-4-(trifluoromethyl)aniline]	414	13
C#Cc1c(F)ccc2cc(O)cc(-c3nc4c5c(nc(OC[C@@]67CCCN6C[C@H](F)C7)nc5c3F)N(C3CCC3)CCCO4)c12 [Example 13, 4-(11-cyclobutyl-4-fluoro-2-(((2R,7aS)-2-fluorotetrahydro-1H-pyrrolizin-7a(5H)-yl)methoxy)-8,9,10,11-tetrahydro-7-oxa-1,3,6,11-tetraazacycloocta[de]naphthalen-5-yl)-5-ethynyl-6-fluoronaphthalen-2-ol]	141	1.4
Nc1cc(Cl)c(C(F)(F)F)c(-c2nc3c4c(nc(OC[C@@]56CCCN5C[C@H](F)C6)nc4c2F)N(C2CC2)CCO3)c1 [Example 8, 3-chloro-5-(10-cyclopropyl-4-fluoro-2-(((2R,7aS)-2-fluorotetrahydro-1H-pyrrolizin-7a(5H)-yl)methoxy)-9,10-dihydro-8H-7-oxa-1,3,6,10-tetraazacyclohepta[de]naphthalen-5-yl)-4-(trifluoromethyl)aniline]	716	9.9
CN1c2nc(OC[C@@]34CCCN3C[C@H](F)C4)nc3c(F)c(-c4cc(N)cc(Cl)c4C(F)(F)F)nc(c23)OCC12CC2 [Example 29, 3-chloro-5-(4-fluoro-2-(((2R,7aS)-2-fluorotetrahydro-1H-pyrrolizin-7a(5H)-yl)methoxy)-10-methyl-8H, 10H-7-oxa-1,3,6,10-tetraazaspiro[cyclohepta[de]naphthalene-9,1′-cyclopropan]-1(10a), 2,3a, 3 al(6a), 5-pentaen-5-yl)-4-(trifluoromethyl)aniline]	56	0.95
CC1CN(C)c2nc(OC[C@@]34CCCN3C[C@H](F)C4)nc3c(F)c(-c4cc(N)cc(Cl)c4C(F)(F)F)nc(c23)O1 (stereo partly drawn) [Example 12, 3-chloro-5-(4-fluoro-2-(((2R,7aS)-2-fluorotetrahydro-1H-pyrrolizin-7a(5H)-yl)methoxy)-8,10-dimethyl-9,10-dihydro-8H-7-oxa-1,3,6,10-tetraazacyclohepta[de]naphthalen-5-yl)-4-(trifluoromethyl)aniline]	152	3.2
CN1c2nc(OC[C@@]34CCCN3C[C@H](F)C4)nc3c(F)c(-c4ccc(F)c5sc(N)c(C#N)c45)c(Cl)c(c23)OCC12COC2 [Example 18, 2-amino-4-(8′-chloro-10′-fluoro-2′-(((2R,7aS)-2-fluorotetrahydro-1H-pyrrolizin-7a(5H)-yl)methoxy)-4′-methyl-4′H, 6′H-spiro[oxetane-3,5′-[1,4]oxazepino[5,6,7-de]quinazolin]-9′-yl)-7-fluorobenzo[b]thiophene-3-carbonitrile]	55	0.84
CN1c2nc(OC[C@@]34CCCN3C[C@H](F)C4)nc3c(F)c(-c4cc(N)cc(Cl)c4C(F)(F)F)nc(c23)OCC12COC2 [Example 23, 3-chloro-5-(4-fluoro-2-(((2R,7aS)-2-fluorotetrahydro-1H-pyrrolizin-7a(5H)-yl)methoxy)-10-methyl-8H, 10H-7-oxa-1,3,6,10-tetraazaspiro[cyclohepta[de]naphthalene-9,3′-oxetan]-1(10a), 2,3a, 3a^1(6a), 5-pentaen-5-yl)-4-(trifluoromethyl)aniline]	338	9.2
CC1CCOc2nc(-c3cc(N)cc(Cl)c3C(F)(F)F)c(F)c3nc(OC[C@@]45CCCN4C[C@H](F)C5)nc(c23)N1C (stereo partly drawn) [Example 6, 3-chloro-5-(4-fluoro-2-(((2R,7aS)-2-fluorotetrahydro-1H-pyrrolizin-7a(5H)-yl)methoxy)-10,11-dimethyl-8,9,10,11-tetrahydro-7-oxa-1,3,6,11-tetraazacycloocta[de]naphthalen-5-yl)-4-(trifluoromethyl)aniline]	63	1.8
CCN1c2nc(OCC34CCCN3CC(F)C4)nc3c(F)c(-c4cc(N)cc(Cl)c4C(F)(F)F)nc(c23)OCCC12CC2 [Example 55, 3-chloro-5-(11-ethyl-4-fluoro-2-(((2R,7aS)-2-fluorotetrahydro-1H-pyrrolizin-7a(5H)-yl)methoxy)-8,9-dihydro-11H-7-oxa-1,3,6,11-tetraazaspiro[cycloocta[de]naphthalene-10,1′-cyclopropan]-1(11a), 2,3a, 3 al(6a), 5-pentaen-5-yl)-4-(trifluoromethyl)aniline]	41	0.57
C#Cc1c(F)ccc2cc(O)cc(-c3nc4c5c(nc(OC[C@@]67CCCN6C[C@H](F)C7)nc5c3F)N(C3CC3)CCCO4)c12 [Example 5, 4-(11-cyclopropyl-4-fluoro-2-(((2R,7aS)-2-fluorotetrahydro-1H-pyrrolizin-7a(5H)-yl)methoxy)-8,9,10,11-tetrahydro-7-oxa-1,3,6,11-tetraazacycloocta[de]naphthalen-5-yl)-5-ethynyl-6-fluoronaphthalen-2-ol]	288	0.87
C[C@@H]1CCOc2nc(-c3cc(N)cc(Cl)c3C(F)(F)F)c(F)c3nc(OC[C@@]45CCCN4C[C@H](F)C5)nc(c23)N1C [Example 26, 3-chloro-5-((R)-4-fluoro-2-(((2R,7aS)-2-fluorotetrahydro-1H-pyrrolizin-7a(5H)-yl)methoxy)-10,11-dimethyl-8,9,10,11-tetrahydro-7-oxa-1,3,6,11-tetraazacycloocta[de]naphthalen-5-yl)-4-(trifluoromethyl)aniline]	32	0.79
CN1c2nc(OC[C@@]34CCCN3C[C@H](F)C4)nc3c(F)c(-c4cc(N)cc(Cl)c4C(F)(F)F)nc(c23)OC2CCCC21 (stereo partly drawn) [Example 45, 3-chloro-5-((7a, 10a-trans)-4-fluoro-2-(((2R,7aS)-2-fluorotetrahydro-1H-pyrrolizin-7a(5H)-yl)methoxy)-11-methyl-7a, 8,9,10,10a, 11-hexahydro-7-oxa-1,3,6,11-tetraazanaphtho[1,8-fg]azulen-5-yl)-4-(trifluoromethyl)aniline]	82	2.7
CCN1c2nc(OC[C@@]34CCCN3C[C@H](F)C4)nc3c(F)c(-c4cc(N)cc(Cl)c4C(F)(F)F)nc(c23)O[C@H]2COCC[C@@H]21 [Example 58, 3-chloro-5-((7aR,11aS)-12-ethyl-4-fluoro-2-(((2R,7aS)-2-fluorotetrahydro-1H-pyrrolizin-7a(5H)-yl)methoxy)-7a, 8,10,11,11a, 12-hexahydro-7,9-dioxa-1,3,6,12-tetraazaplciaden-5-yl)-4-(trifluoromethyl)aniline]	29	0.49
C[C@@H]1CCOc2c(Cl)c(-c3ccc(F)c4sc(N)c(C#N)c34)c(F)c3nc(OC[C@@]45CCCN4C[C@H](F)C5)nc(c23)N1C [Example 19, 2-amino-4-((R)-9-chloro-11-fluoro-2-(((2R,7aS)-2-fluorotetrahydro-1H-pyrrolizin-7a(5H)-yl)methoxy)-4,5-dimethyl-4,5,6,7-tetrahydro-[1,5]oxazocino[4,3,2-de]quinazolin-10-yl)-7-fluorobenzo[b]thiophene-3-carbonitrile]	22	0.65
CCN1c2nc(OC[C@@]34CCCN3C[C@H](F)C4)nc3c(F)c(-c4cc(N)cc(C)c4C(F)(F)F)nc(c23)OCCC12COC2 [Example 56, 3-(11-ethyl-4-fluoro-2-(((2R,7aS)-2-fluorotetrahydro-1H-pyrrolizin-7a(5H)-yl)methoxy)-8,9-dihydro-11H-7-oxa-1,3,6,11-tetraazaspiro[cycloocta[de]naphthalene-10,3′-oxetan]-1(11a), 2,3a, 3a^1(6a),5-pentaen-5-yl)-5-methyl-4-(trifluoromethyl)aniline]	33	1.2
Nc1cc(Cl)c(C(F)(F)F)c(-c2nc3c4c(nc(OC[C@@]56CCCN5C[C@H](F)C6)nc4c2F)N(CCO)CCO3)c1 [Example 7, 2-(5-(5-amino-3-chloro-2-(trifluoromethyl)phenyl)-4-fluoro-2-(((2R,7aS)-2-fluorotetrahydro-1H-pyrrolizin-7a(5H)-yl)methoxy)-8,9-dihydro-10H-7-oxa-1,3,6,10-tetraazacyclohepta[de]naphthalen-10-yl)ethan-1-ol]	586	2.5
CCN1c2nc(OC[C@@]34CCCN3C[C@H](F)C4)nc3c(F)c(-c4cc(N)cc(C)c4C(F)(F)F)nc(c23)OCCC12CC2 [Example 54, 3-(11-ethyl-4-fluoro-2-(((2R,7aS)-2-fluorotetrahydro-1H-pyrrolizin-7a(5H)-yl)methoxy)-8,9-dihydro-11H-7-oxa-1,3,6,11-tetraazaspiro[cycloocta[de]naphthalene-10,1′-cyclopropan]-1(11a), 2,3a, 3a^1(6a), 5-pentaen-5-yl)-5-methyl-4-(trifluoromethyl)aniline]	51	1.7
